How the values were obtained:
[1] = target: T1, alpha2C adrenergic receptors (Homo sapiens, UniProt P18825); assay: Receptor Selection and Amplification Technology (RSAT) assay, alpha2C; type: cell-based; conditions: for EC50: NA = not active at concentrations less than 10 micromolar, read-out: Alpha 2C EC50; for Alpha 2C intrinsic activity: fraction of maximal effect of standard full agonist brimonidine (UK14304)
T1 construct: expressed in transfected cells; host or cells: NIH-3T3
T1 sequence (P18825 1-462): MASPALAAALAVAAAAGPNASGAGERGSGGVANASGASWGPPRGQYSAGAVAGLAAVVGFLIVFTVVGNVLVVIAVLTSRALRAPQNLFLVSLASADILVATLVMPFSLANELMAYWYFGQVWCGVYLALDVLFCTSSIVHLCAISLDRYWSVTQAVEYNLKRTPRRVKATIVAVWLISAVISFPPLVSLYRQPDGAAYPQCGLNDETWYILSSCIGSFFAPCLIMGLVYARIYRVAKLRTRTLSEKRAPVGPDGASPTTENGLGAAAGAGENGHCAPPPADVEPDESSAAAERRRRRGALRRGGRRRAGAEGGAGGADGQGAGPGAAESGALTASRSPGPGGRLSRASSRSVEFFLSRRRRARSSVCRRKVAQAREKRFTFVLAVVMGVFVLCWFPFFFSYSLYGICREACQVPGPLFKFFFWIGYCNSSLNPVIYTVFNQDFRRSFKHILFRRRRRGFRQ
From the text: (§1) The imidazole-2-thione compounds of the invention are agonists of alpha2 adrenergic receptors, particularly they tend to be specific or selective agonists of alpha2B and/or to a lesser extent alpha2C adrenergic receptors, in preference over alpha2A adrenergic receptors. […] Al., 1995, Pharmacol. Toxicol. 76, pp. 308-311 (incorporated herein by reference) and is also described below. Another reference pertinent to this assay is Conklin et al. (1993) Nature 363:274-6, also incorporated herein by reference.
(§2) Receptor Selection and Amplification Technology (RSAT) Assay
(§3) The RSAT assay measures a receptor-mediated loss of contact inhibition that results in selective proliferation of receptor-containing cells in a mixed population of confluent cells. The increase in cell number is assessed with an appropriate transfected marker gene such as β-galactosidase, the activity of which can be easily measured in a 96-well format. Receptors that activate the G protein, Gq, elicit this response. Alpha2 receptors, which normally couple to Gi, activate the RSAT response when coexpressed with a hybrid Gq protein that has a Gi receptor recognition domain, called Gq/i5.
(§4) NIH-3T3 cells are plated at a density of 2×10^6 cells in 15 cm dishes and maintained in Dulbecco's modified Eagle's medium supplemented with 10% calf serum. One day later, cells are cotransfected by calcium phosphate precipitation with mammalian expression plasmids encoding p-SV-β-galactosidase (5-10 μg), receptor (1-2 μg) and G protein (1-2 μg). 40 μg salmon sperm DNA may also be included in the transfection mixture. Fresh media is added on the following day and 1-2 days later, cells are harvested and frozen in 50 assay aliquots. Cells are thawed and 100 μl added to 100 μl aliquots of various concentrations of drugs in triplicate in 96-well dishes. Incubations continue 72-96 hr at 37 EC. After washing with phosphate-buffered saline, β-galactosidase enzyme activity is determined by adding 200 μl of the chromogenic substrate (consisting of 3.5 mM o-nitrophenyl-β-D-galactopyranoside and 0.5% nonidet P-40 in phosphate buffered saline), incubating overnight at 30 EC and measuring optical density at 420 nm. The absorbance is a measure of enzyme activity, which depends on cell number and reflects a receptor-mediated cell proliferation. The EC50 and maximal effect of each drug at each alpha2 receptor is determined. The efficacy or intrinsic activity is calculated as a ratio of the maximal effect of the drug to the maximal effect of a standard full agonist for each receptor subtype. Brimonidine, also called UK14304, the chemical structure of which is shown below, is used as the standard agonist for the alpha2A, alpha2B and alpha2C receptors.
(§5) The results of the RSAT assay with several exemplary compounds of the invention are disclosed in Table 1 above together with the chemical formulas of these examplary compounds. […] NA stands for “not active” at concentrations less than 10 micromolar. As is known EC50 is the concentration at which half of a given compound's maximal activity is observed.

[2] = target: T2, alpha2B adrenergic receptors (Homo sapiens, UniProt P18089); assay: Receptor Selection and Amplification Technology (RSAT) assay, alpha2B; type: cell-based; conditions: for EC50: NA = not active at concentrations less than 10 micromolar, read-out: Alpha 2B EC50; for Alpha 2B intrinsic activity: fraction of maximal effect of standard full agonist brimonidine (UK14304)
T2 construct: expressed in transfected cells; host or cells: NIH-3T3
T2 sequence (P18089 1-450): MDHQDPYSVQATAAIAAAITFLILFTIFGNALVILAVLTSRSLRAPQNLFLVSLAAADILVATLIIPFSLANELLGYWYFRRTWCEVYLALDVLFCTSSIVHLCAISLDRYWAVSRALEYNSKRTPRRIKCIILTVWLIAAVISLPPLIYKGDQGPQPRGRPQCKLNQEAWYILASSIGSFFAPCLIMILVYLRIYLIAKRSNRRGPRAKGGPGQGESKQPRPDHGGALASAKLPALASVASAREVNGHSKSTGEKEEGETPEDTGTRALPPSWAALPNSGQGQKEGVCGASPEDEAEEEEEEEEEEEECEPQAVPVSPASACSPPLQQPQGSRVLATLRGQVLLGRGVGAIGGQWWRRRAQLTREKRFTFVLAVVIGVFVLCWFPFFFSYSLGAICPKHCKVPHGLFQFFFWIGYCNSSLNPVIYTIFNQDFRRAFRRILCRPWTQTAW
From the text: as §1, §2, §3, §4, §5

EC50 [1] [µM]	Alpha 2C intrinsic activity [1]	EC50 [2] [µM]	Alpha 2B intrinsic activity [2]	SMILES
0.022	0.95	0.051	0.78	CC1=C(c2ccc(F)cc2)C(Cc2c[nH]c(=S)[nH]2)CC1 (stereo not shown)
0.0345	0.82	0.0225	0.97	CC1=C(c2ccc(F)cc2)C(Cc2c[nH]c(=S)[nH]2)CCC1 (stereo not shown)
–	–	0.115	0.99	O=C1c2c(Cl)cccc2CCC1Cc1c[nH]c(=S)[nH]1 (stereo not shown)
0.106	0.87	0.005	1.07	S=c1[nH]cc(C2Cc3cccc(Br)c3C2)[nH]1 (stereo not shown)
0.19	0.53	0.007	1	S=c1[nH]cc(C2Cc3ccc(Cl)c(Cl)c3C2)[nH]1 (stereo not shown)
0.009	0.45	0.032	0.9	Fc1ccc(C2=C(C3CC3)CCC2Cc2c[nH]c(=S)[nH]2)cc1 (stereo not shown)
–	–	0.451	0.68	CCC1=CCC(Cc2c[nH]c(=S)[nH]2)CC1 (stereo not shown)
–	–	0.269	0.79	CC(C)C1=C(c2ccc(F)cc2)C(Cc2c[nH]c(=S)[nH]2)CC1 (stereo not shown)
–	–	0.092	0.79	O=C1c2ccccc2CC[C@@H]1Cc1c[nH]c(=S)[nH]1
–	–	0.086	0.78	S=c1[nH]cc(CC2CCC3=C(CCCC3)C2)[nH]1 (stereo not shown)
–	–	0.72	0.6	O=C1c2cccnc2CCC1Cc1c[nH]c(=S)[nH]1 (stereo not shown)
–	–	1.15	0.37	S=c1[nH]cc(CC2CCc3cc(Cl)ccc32)[nH]1 (stereo not shown)
–	–	0.081	0.81	CC1=CC(Cc2c[nH]c(=S)[nH]2)CC1 (stereo not shown)
–	–	0.061	0.72	CC1=CCC(Cc2c[nH]c(=S)[nH]2)CC1 (stereo not shown)
–	–	0.017	0.65	S=c1[nH]cc(CC2CCc3ccccc3C2)[nH]1 (stereo not shown)
–	–	0.105	0.64	Cc1ccc(C)c2c1CCC2Cc1c[nH]c(=S)[nH]1 (stereo not shown)
–	–	0.041	0.83	O=C1c2ccccc2CC[C@H]1Cc1c[nH]c(=S)[nH]1
–	–	0.005	1.03	C[C@@H]1c2ccccc2C[C@H]1c1c[nH]c(=S)[nH]1
–	–	1.47	0.66	Fc1cccc(C2=CCC[C@@H]2Cc2c[nH]c(=S)[nH]2)c1
–	–	0.286	1.16	S=c1[nH]cc(CC2CCSc3ccccc32)[nH]1 (stereo not shown)
0.715	0.61	–	–	Fc1ccc(C2=CCC[C@H]2Cc2c[nH]c(=S)[nH]2)cc1
–	–	0.006	1.08	CCC1=C(C)CCC(Cc2c[nH]c(=S)[nH]2)C1 (stereo not shown)
0.241	0.66	–	–	Fc1cc(F)cc(C2=CCCC2Cc2c[nH]c(=S)[nH]2)c1 (stereo not shown)
–	–	0.018	1.0	O=C1c2ccccc2CCC1Cc1c[nH]c(=S)[nH]1 (stereo not shown)
–	–	0.11	0.65	S=c1[nH]cc(CC2Cc3ccccc3C2)[nH]1
–	–	0.06	0.73	S=c1[nH]cc(C[C@@H]2CCC3=C(CCCC3)C2)[nH]1
–	–	0.395	0.41	S=c1[nH]cc(C[C@H]2CCc3ccccc3C2)[nH]1

EC50 [1] [µM]	Alpha 2C intrinsic activity [1]	EC50 [2] [µM]	Alpha 2B intrinsic activity [2]	SMILES
–	–	0.16	0.94	N#C/C=C1\c2ccccc2CCC1Cc1c[nH]c(=S)[nH]1 (stereo not shown)
–	–	0.815	0.83	O=C1C2=C(CCCC2)CCC1Cc1c[nH]c(=S)[nH]1 (stereo not shown)
–	–	0.03	0.75	Fc1ccc2c(c1)CC(c1c[nH]c(=S)[nH]1)C2 (stereo not shown)
–	–	0.0575	0.85	S=c1[nH]cc(C2Cc3ccc(Cl)cc3C2)[nH]1 (stereo not shown)
0.191	0.45	–	–	Fc1cccc(C2=CCCC2Cc2c[nH]c(=S)[nH]2)c1 (stereo not shown)
–	–	0.469	0.87	CC1=CCC(Cc2c[nH]c(=S)[nH]2)OC1 (stereo not shown)
–	–	0.0345	0.93	Fc1cccc2c1CCC2Cc1c[nH]c(=S)[nH]1 (stereo not shown)
–	–	0.025	0.61	CC1=C(C)CC(Cc2c[nH]c(=S)[nH]2)CC1 (stereo not shown)
0.214	0.68	–	–	S=c1[nH]cc(CC2CCC=C2c2ccccc2)[nH]1 (stereo not shown)
–	–	1.01	0.48	O=C1c2ccc(O)cc2CCC1Cc1c[nH]c(=S)[nH]1 (stereo not shown)
–	–	0.006	0.98	S=c1[nH]cc(C2Cc3ccccc3C2)[nH]1
–	–	0.85	0.71	O=C1c2ccccc2CC1Cc1c[nH]c(=S)[nH]1 (stereo not shown)
–	–	0.0313	0.91	S=c1[nH]cc(CC2CCc3c(Cl)cccc32)[nH]1 (stereo not shown)
–	–	1.59	0.74	S=c1[nH]cc(CC2CCc3ncccc3C2)[nH]1 (stereo not shown)
–	–	0.014	0.74	S=c1[nH]cc(CC2CCc3sccc3C2)[nH]1 (stereo not shown) [drawing 22]
–	–	0.017	0.82	S=c1[nH]cc(C2CCc3ccccc3CC2)[nH]1
–	–	0.3	0.76	O=C1c2ccc(F)cc2CCC1Cc1c[nH]c(=S)[nH]1 (stereo not shown)
–	–	0.834	0.54	Fc1ccc2c(c1F)CCC2Cc1c[nH]c(=S)[nH]1 (stereo not shown)
–	–	0.0065	0.81	Fc1cc(F)c2c(c1)CC(c1c[nH]c(=S)[nH]1)C2 (stereo not shown)
–	–	0.106	0.97	O=C1c2ccsc2CCC1Cc1c[nH]c(=S)[nH]1 (stereo not shown)
–	–	0.074	0.78	S=c1[nH]cc(CC2CCCc3cccc(Cl)c32)[nH]1 (stereo not shown)
–	–	0.265	0.60	C#CC1=CCC(Cc2c[nH]c(=S)[nH]2)CC1 (stereo not shown)
–	–	0.0137	0.93	S=c1[nH]cc(C[C@@H]2CCc3ccccc3C2)[nH]1
0.994	0.53	–	–	Fc1ccccc1C1=CCCC1Cc1c[nH]c(=S)[nH]1 (stereo not shown)
–	–	0.022	1.02	COc1cc(F)c2c(c1)CC(c1c[nH]c(=S)[nH]1)C2 (stereo not shown)
0.43	0.38	–	–	Fc1ccc(F)c(C2=CCCC2Cc2c[nH]c(=S)[nH]2)c1 (stereo not shown)
–	–	0.99	0.5	N#C/C=C1/c2ccccc2CCC1Cc1c[nH]c(=S)[nH]1 (stereo not shown)

From patent publication US7323485B2, “4-(substituted cycloalkylmethyl) imidazole-2-thiones, 4-(substituted cycloalkenylmethyl) imidazole-2-thiones, 4-(substituted cycloalkylmethyl) imidazol-2-ones and 4-(substituted cycloalkenylmethyl) imidazol-2-ones and related compounds” (Allergan, Inc., priority 2002, dated 2008)
